In US7119182B1 (The Regents of the University of California, priority 1991, dated 2006):
Square brackets hold non-standard residues; d marks the D form. Peptide text beside a SMILES is read from it. * marks the point of attachment. Cha = N[C@@H](CC1CCCCC1)C(=O)O; Piv = CC(C)(C)C(=O)*; Mpa = O=C(O)CCS

Tests used:
thrombin receptor = molecular target: T1, thrombin receptor (Homo sapiens, UniProt P25116); experiment: Platelet activation/aggregation assays in the presence of thrombin, antagonist peptides; type: cell-based; settings: read-out: IC50 (50% inhibition of activation or aggregation)
T1 construct: In this assay, washed human platelets are prepared by the method of Baenzinger; endogenous in cells; host or cells: washed human platelets
T1 sequence (P25116 22-425): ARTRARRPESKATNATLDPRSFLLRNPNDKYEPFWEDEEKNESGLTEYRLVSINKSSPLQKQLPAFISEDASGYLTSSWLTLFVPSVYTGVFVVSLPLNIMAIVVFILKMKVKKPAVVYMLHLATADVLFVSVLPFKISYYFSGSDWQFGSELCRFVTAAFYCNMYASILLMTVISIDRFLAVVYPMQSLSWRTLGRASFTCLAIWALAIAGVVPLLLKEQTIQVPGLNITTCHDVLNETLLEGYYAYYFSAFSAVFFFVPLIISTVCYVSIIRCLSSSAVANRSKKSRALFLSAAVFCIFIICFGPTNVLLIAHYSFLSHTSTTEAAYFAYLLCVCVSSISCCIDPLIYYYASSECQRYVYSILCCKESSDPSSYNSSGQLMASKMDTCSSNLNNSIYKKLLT
Method: Platelet Aggregation: In this assay, washed human platelets are prepared by the method of Baenzinger, M. G., Meth Enzymol (1974) 31:149–155, or as described by Charo, I. F., et al., J Clin Invest (1977) 63:866–873.
Washed platelets are suspended in modified Tyrode's buffer, pH 7.4 with 2 mM magnesium and 1 mM calcium at a concentration of 10^8 platelets/ml.
(§1) About 20 μl Chromolume® reagent (Chronolog Corporation, Havertown, Pa.) is added. In addition to measuring aggregation, ATP secretion is assessed. […] Platelet ATP secretion is measured in a lumiaggregometer as luminescence signal. […] Preincubation is not necessary for testing agonists or antagonists which interact directly with the receptor.
Platelet Aggregation Assay Using Microtiter Plates: Thrombin- or agonist-mediated platelet aggregation as measured with washed platelets in 96-well microtiter plates was performed as described (Fratantoni, J. C. et al., Am J Clin Pathol (1990) 94:613–617).

washed human platelets [1] = molecular target: T2, washed human platelets (Homo sapiens, UniProt P25116); experiment: Platelet ATP secretion in response to agonist peptide; type: cell-based; settings: concentrations as high as 200 μM (not shown)
T2 sequence (P25116 42-425): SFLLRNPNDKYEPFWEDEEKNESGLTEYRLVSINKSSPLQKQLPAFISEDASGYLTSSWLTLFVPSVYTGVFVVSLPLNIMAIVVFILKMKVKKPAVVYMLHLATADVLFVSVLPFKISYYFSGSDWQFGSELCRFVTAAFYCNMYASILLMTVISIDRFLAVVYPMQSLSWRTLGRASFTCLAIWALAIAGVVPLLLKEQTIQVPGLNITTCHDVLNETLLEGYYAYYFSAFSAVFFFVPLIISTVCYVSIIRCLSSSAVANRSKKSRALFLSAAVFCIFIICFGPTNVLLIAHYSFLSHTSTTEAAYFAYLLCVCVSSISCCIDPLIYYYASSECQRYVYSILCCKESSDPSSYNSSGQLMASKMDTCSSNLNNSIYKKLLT
Method: as §1
Washed human platelets were prepared as described by Baenzinger, N. G., Meth Enz (1974) 31:149–155; and Charo, I. F., et al., J Clin Invest (1977) 63:866–873. Agonist-induced responses were assessed as described above.
Platelet ATP secretion in response to the indicated final concentrations of “new amino-terminal” peptide was also followed by lumiaggregometry, and the results are shown in FIG. 4.
The data shown in FIG. 4 are raw tracings representative of aggregation or secretion responses obtained in triplicate for each agonist concentration, and are representative of results obtained in more than five separate experiments.

washed human platelets [2] = molecular target: T2, washed human platelets; settings: concentrations as high as 200 μM (not shown)

| Compound | IC50 (thrombin receptor) [µM] | Platelet ATP secretion activity of control peptides (washed human platelets [1]) | Platelet aggregation activity of control peptides (washed human platelets [2]) |
| --- | --- | --- | --- |
| C[C@H](NC(=O)[C@H](CC(N)=O)NC(=O)[C@@H]1CCCN1C(=O)[C@H](CC(N)=O)NC(=O)[C@H](CCCNC(=N)N)NC(=O)[C@H](CC1CCCCC1)NC(=O)[C@H](CC1CCCCC1)NC(=O)[C@H](Cc1ccccc1)NC(=O)CCS)C(=O)N[C@@H](CCCCN)C(N)=O [Mpr-F(Cha) (Cha)RNPNAK-NH2] ([Mpa]F[Cha][Cha]RNPNAK-NH2) | > 100 |  |  |
| C[C@H](NC(=O)[C@H](CC(=O)O)NC(=O)[C@H](CC(N)=O)NC(=O)[C@@H]1CCCN1C(=O)[C@H](CC(N)=O)NC(=O)[C@H](CCCNC(=N)N)NC(=O)[C@H](CC1CCCCC1)NC(=O)[C@H](CC1CCCCC1)NC(=O)[C@H](Cc1ccccc1)NC(=O)CCS)C(N)=O [Mpr-F(Cha) (Cha)RNPNDA-NH2] ([Mpa]F[Cha][Cha]RNPNDA-NH2) | 50 |  |  |
| N=C(N)NCCC[C@H](NC(=O)[C@H](CC1CCCCC1)NC(=O)[C@H](CC1CCCCC1)NC(=O)[C@H](Cc1ccccc1)NC(=O)CCS)C(=O)N[C@@H](CC(N)=O)C(=O)N1CCC[C@H]1C(=O)N[C@@H](CC(N)=O)C(=O)N[C@@H](CC(=O)O)C(=O)N[C@@H](CCCCN)C(=O)N[C@@H](Cc1ccc(O)cc1)C(N)=O [Mpr-F(Cha) (Cha)RNPNDKY-NH2] ([Mpa]F[Cha][Cha]RNPNDKY-NH2) | 75 |  |  |
| CC(C)C[C@H](NC(=O)[C@H](CC(C)C)NC(=O)[C@H](Cc1ccccc1)NC(=O)C(C)(C)C)C(=O)N[C@@H](CCCNC(=N)N)C(N)=O [Pivaloyl-FLLR-NH2] (Piv-FLLR-NH2) | 1000 |  |  |
| LLRNPNDKYEPF [reference compound] |  | without activity | without activity |

Further compounds by falling IC50 (thrombin receptor), results first:

| IC50 (thrombin receptor) [µM] | Platelet ATP secretion activity of control peptides (washed human platelets [1]) | Platelet aggregation activity of control peptides (washed human platelets [2]) | Compound |
| --- | --- | --- | --- |
| 50 |  |  | N=C(N)NCCC[C@H](NC(=O)[C@H](CC1CCCCC1)NC(=O)[C@H](CC1CCCCC1)NC(=O)[C@H](Cc1ccccc1)NC(=O)CCS)C(=O)N[C@@H](CC(N)=O)C(=O)N1CCC[C@H]1C(=O)N[C@@H](CC(N)=O)C(=O)N[C@@H](CC(=O)O)C(N)=O [Mpr-F(Cha) (Cha)RNPND-NH2] ([Mpa]F[Cha][Cha]RNPND-NH2) |
| 40 |  |  | N=C(N)NCCC[C@H](NC(=O)[C@H](CC1CCCCC1)NC(=O)[C@H](CC1CCCCC1)NC(=O)[C@H](Cc1ccccc1)NC(=O)CCS)C(=O)N[C@@H](CC(N)=O)C(=O)N1CCC[C@H]1C(=O)N[C@@H](CC(N)=O)C(=O)N[C@@H](CC(=O)O)C(=O)N[C@@H](CCCCN)C(=O)N[C@@H](Cc1ccc(O)cc1)C(=O)O [Mpr-F(Cha) (Cha)RNPNDKY] ([Mpa]F[Cha][Cha]RNPNDKY-OH) |
